Reference: patent US9585871B2, “Method for treating and curing leishmaniosis using fexinidazole” (Merial Limited, priority 2013, dated 2017)
Several values for one entry are separate records, joined by “and”; a condition that tells them apart may be missing. Equal entries are not always repeated. Entries after “also recorded” stand apart in the source; their conditions may differ.

What was measured:
Type in all cases: in vivo
L. infantum [1] = test: Clinical study in dogs infected with L. infantum: Overall Biological Score; set-up: key: additive score of severity of hematology/chemistry changes; settings: Glucantime 100 mg/kg dNMA SC or Fexinidazole 60 mg/kg PO once daily Days 0-27
Procedure: (§1) In a clinical study, dogs infected with L. infantum were treated with meglumine antimoniate (GLUCANTIME®, Merial) as a positive control, or FEX (Table 5). Eight blocks of two animals were formed based antibody titers and biological scores. Six dogs in each group were naturally infected by housing them in an endemic area for two years and two dogs in each group were artificially infected by intravenous administration of a known quantity of parasites recovered from the spleen of an infected dog.
(§2) The first group (FEX) was compared to the second group, which was treated with 27 mg/kg GLUCANTIME (meglumine antimoniate, or 100 mg/kg of dNMA) “GLU”), over 28 days.
(§3) Variables. The Clinical Score is an additive score of various clinical signs (body condition, lymphadenopathy, splenomegaly, appetite, behavior, mucous membrane color, dermatopathology, ocular signs, digestive signs, arthropathy) evaluated before treatment and on Days 7, 14, 21, 28, 57, 184, 219, 254, 282, 310, 345, 400 and 436. The Overall Biological Score is an additive score based on the severity of changes in hematology/chemistry values (creatinine, urine protein/creatinine, Hct, globulin, ALAT), evaluated pretreatment and on Days 28, 57, and 181. The L. infantum immunofluorescent antibody titers (IFAT) were determined from samples collected before treatment and on Days 28, 57, and 181. Finally, quantitative PCR (qPCR) for L. infantum was conducted on spleen aspirates collected before treatment and on Days 28, 57, 142, 184, and 373.

L. infantum [2] = test: Clinical study in dogs infected with L. infantum: qPCR on spleen aspirates; settings: spleen aspirate, Glucantime 100 mg/kg dNMA SC or Fexinidazole 60 mg/kg PO once daily Days 0-27
Procedure: as §1, §2, §3

L. infantum [3] = test: Clinical study in dogs infected with L. infantum: Clinical Score; set-up: key: additive score of clinical signs (body condition, lymphadenopathy, etc.); settings: Glucantime 100 mg/kg dNMA SC or Fexinidazole 60 mg/kg PO once daily Days 0-27
Procedure: as §1, §2, §3

L. infantum [4] = test: Clinical study in dogs infected with L. infantum: overall outcome (cure, relapse, removal of animals); settings: canines, L. infantum
Procedure: as §1
The first group (FEX) was compared to the second group, which was treated with 27 mg/kg GLUCANTIME (meglumine antimoniate, or 100 mg/kg of dNMA) “GLU”), over 28 days. […]

CSc1ccc(OCc2ncc([N+](=O)[O-])n2C)cc1 [Fexinidazole, fexinidazole]
Overall Biological Score (L. infantum [1]; Day 28, individual dogs): 3 (2×) and 2 (2×) and 1 (2×) and 0 (2×)
Overall Biological Score, group average (L. infantum [1]; Day 28): 1.5
Overall Biological Score (L. infantum [1]; Day 57, individual dogs): 2 (3×) and 0 (3×) and 3 (2×)
Overall Biological Score, group average (L. infantum [1]; Day 57, Group 1 includes D28 data of Block 3 dog carried forward): 1.5
Overall Biological Score (L. infantum [1]; Day 181, individual dogs): 0 (5×) and 1 (2×) and 3
Overall Biological Score, group average (L. infantum [1]; Day 181, Group 1 includes D28 data of Block 3 dog carried forward): 0.6
Overall Biological Score (L. infantum [1]; Day −14 (pretreatment), individual dogs): 4 and 7 and 5 (2×) and 2 and 3 and 1 and 0
Overall Biological Score, group average (L. infantum [1]; Day −14 (pretreatment)): 3.4
qPCR for L. infantum (L. infantum [2]; Day 28, individual dogs): BLOQ (BLOQ = Below Level of Quantification = < log 3.64 copies/mL spleen aspirate)
qPCR for L. infantum (L. infantum [2]; Day 57, individual dogs): BLOQ (BLOQ = Below Level of Quantification = < log 3.64 copies/mL spleen aspirate)
qPCR for L. infantum (L. infantum [2]; Day 142, individual dogs): BLOQ (BLOQ = Below Level of Quantification = < log 3.64 copies/mL spleen aspirate)
qPCR for L. infantum (L. infantum [2]; Day 184, individual dogs): BLOQ (BLOQ = Below Level of Quantification = < log 3.64 copies/mL spleen aspirate)
qPCR for L. infantum (L. infantum [2]; Day 373, individual dogs): BLOQ (BLOQ = Below Level of Quantification = < log 3.64 copies/mL spleen aspirate) (7×) and 3.82 log copies/mL
qPCR for L. infantum (L. infantum [2]; Day −7 (before treatment), individual dogs): 7.19 log copies/mL and 7.11 log copies/mL and 5.21 log copies/mL and 5.57 log copies/mL and 6.58 log copies/mL and 5.81 log copies/mL and 6.01 log copies/mL and BLOQ (BLOQ = Below Level of Quantification = < log 3.64 copies/mL spleen aspirate)
Clinical Score, group average (L. infantum [3]; Day 7): 2.8
Clinical Score (L. infantum [3]; Day 14, individual dogs): 2 (2×) and 0 (2×) and 3 (3×)
Clinical Score, group average (L. infantum [3]; Day 14): 1.6
Clinical Score (L. infantum [3]; Day 21, individual dogs): 0 (5×) and 2 (2×)
Clinical Score, group average (L. infantum [3]; Day 21): 0.5
Clinical Score (L. infantum [3]; Day 28, individual dogs): 0 (4×) and 1 (2×) and 2
Clinical Score, group average (L. infantum [3]; Day 28, Group 1 includes D21 data of Block 3 dog carried forward): 0.5
Clinical Score (L. infantum [3]; Day 57, individual dogs): 2 (3×) and 0 (4×)
Clinical Score, group average (L. infantum [3]; Day 57, Group 1 includes D21 data of Block 3 dog carried forward): 0.8
Clinical Score (L. infantum [3]; Day 184, individual dogs): 0
Clinical Score, group average (L. infantum [3]; Day 184): 0.1
Clinical Score (L. infantum [3]; Day 219, individual dogs): 0 (6×) and 1
Clinical Score, group average (L. infantum [3]; Day 219): 0.1
Clinical Score (L. infantum [3]; Day 254, individual dogs): 0 (7×) and 4
Clinical Score, group average (L. infantum [3]; Day 254): 0.5
Clinical Score (L. infantum [3]; Day 282, individual dogs): 0 (7×) and 2
Clinical Score, group average (L. infantum [3]; Day 282): 0.3
Clinical Score (L. infantum [3]; Day 310, individual dogs): 0 (6×) and 2
Clinical Score, group average (L. infantum [3]; Day 310): 0.3
Clinical Score (L. infantum [3]; Day 345, individual dogs): 0 (6×) and 2
Clinical Score, group average (L. infantum [3]; Day 345): 0.3
Clinical Score (L. infantum [3]; Day 400, individual dogs): 0 (5×) and 1 and 2
Clinical Score, group average (L. infantum [3]; Day 400): 0.4
Clinical Score, group average (L. infantum [3]; Day 436): 0.4
Clinical Score, group average (L. infantum [3]; Day −7 (before treatment)): 2.4
relapse (L. infantum [4]; 180 days after treatment initiation): No relapse was observed
cure of Leishmania infection (L. infantum [4]; oral 60 mg/kg/day for 28 days, qPCR-confirmed, 60 mg/kg/day): can substantially or completely eliminate or cure L. infantum infection in canines; also recorded: sufficient to cure canines of leishmania parasites; also recorded: complete curing efficacy
